Assay results reported in ChEMBL document CHEMBL4814028, “Design, synthesis, and antibacterial evaluation of PFK-158 derivatives as potent agents against drug-resistant bacteria” (Bioorg Med Chem Lett, 2021).
Converted amounts (≈) assume the structure as drawn.

Tests used:
[1] = test system: Escherichia coli; assay: Synergistic antibacterial activity against carbapenem-resistant Escherichia coli 08-85 mcr-1 positive isolate in presence of colistin by checkerboard assay; format: functional
[2] = test system: Staphylococcus epidermidis; assay: Antibacterial activity against methicillin-sensitive Staphylococcus epidermidis ATCC 12228 by agar method; format: functional
[3] = test system: Enterococcus faecalis; assay: Antibacterial activity against Vancomycin-sensitive Enterococcus faecalis ATCC 29212 by agar method; format: functional
[4] = test system: Escherichia coli; assay: Antibacterial activity against carbapenem-resistant Escherichia coli 08-85 mcr-1 positive isolate by checkerboard assay; format: functional
[5] = test system: Escherichia coli; assay: Synergistic antibacterial activity against carbapenem-resistant Escherichia coli 08-85 mcr-1 positive isolate assessed as fractional inhibitory concentration index in presence of colistin by checkerboard assay; format: functional
[6] = test system: Enterobacter cloacae; assay: Synergistic antibacterial activity against carbapenem-resistant Enterobacter cloacae D01 mcr-1 negative isolate assessed as fractional inhibitory concentration index in presence of colistin by checkerboard assay; format: functional
[7] = test system: Acinetobacter baumannii; assay: Antibacterial activity against carbapenem-resistant Acinetobacter baumannii 16-33 by agar method; format: functional
[8] = test system: Escherichia coli; assay: Antibacterial activity against NDM-1 positive Escherichia coli ATCC 2469 by agar method; format: functional
[9] = test system: Staphylococcus aureus; assay: Antibacterial activity against methicillin-sensitive Staphylococcus aureus ATCC 29213 by agar method; format: functional
[10] = test system: Staphylococcus epidermidis; assay: Antibacterial activity against methicillin-resistant Staphylococcus epidermidis 16-5 by agar method; format: functional
[11] = test system: Enterobacter cloacae; assay: Synergistic antibacterial activity against carbapenem-resistant Enterobacter cloacae D01 mcr-1 negative isolate in presence of colistin by checkerboard assay; format: functional
[12] = test system: Staphylococcus aureus; assay: Antibacterial activity against methicillin-resistant Staphylococcus aureus ATCC 33591 by agar method; format: functional
[13] = test system: Escherichia coli; assay: Antibacterial activity against ESBLs positive Escherichia coli ATCC 35218 by agar method; format: functional
[14] = test system: Enterococcus faecalis; assay: Antibacterial activity against vancomycin-resistant Enterococcus faecalis ATCC 51299 by agar method; format: functional
[15] = test system: Escherichia coli; assay: Antibacterial activity against ESBLs negative Escherichia coli ATCC 25922 by agar method; format: functional
[16] = test system: Enterobacter cloacae; assay: Antibacterial activity against carbapenem-resistant Enterobacter cloacae D01 mcr-1 negative isolate by checkerboard assay; format: functional
[17] = test system: A549; assay: Cytotoxicity against human A549 cells; format: cell-based
[18] = test system: Staphylococcus epidermidis; assay: Potency index, ratio of Levofloxacin MIC to test compound MIC for antibacterial activity against methicillin-resistant Staphylococcus epidermidis […] 16-5; format: functional

## O=C(/C=C/c1ccc2ccccc2n1)c1ccccn1
[1]
  MIC: 32 µg/mL
[2]
  MIC: 1 µg/mL (≈ 3.84 µM)
[3]
  MIC: 4 µg/mL (≈ 15.4 µM)
[4]
  MIC: 1020 µg/mL
[5]
  fractional inhibitory concentration index (FICI): 0.281
[6]
  fractional inhibitory concentration index (FICI): 0.012
[7]
  MIC: > 32 µg/mL
[8]
  MIC: > 32 µg/mL
[9]
  MIC: 2 µg/mL (≈ 7.68 µM)
[10]
  MIC: 1 µg/mL (≈ 3.84 µM)
[11]
  MIC: 4 µg/mL
[12]
  MIC: 1 µg/mL (≈ 3.84 µM)
[13]
  MIC: > 32 µg/mL
[14]
  MIC: 4 µg/mL (≈ 15.4 µM)
[15]
  MIC: > 32 µg/mL
[16]
  MIC: 1020 µg/mL
[17]
  IC50: 18.5 µM
[18]
  Ratio: 2

## O=C(/C=C/c1ccc2ccccc2n1)c1ccccc1
[2]
  MIC: 2 µg/mL (≈ 7.71 µM)
[3]
  MIC: 128 µg/mL (≈ 494 µM)
[7]
  MIC: > 128 µg/mL
[8]
  MIC: > 128 µg/mL
[9]
  MIC: 2 µg/mL (≈ 7.71 µM)
[10]
  MIC: 4 µg/mL (≈ 15.4 µM)
[12]
  MIC: 2 µg/mL (≈ 7.71 µM)
[13]
  MIC: > 128 µg/mL
[14]
  MIC: 128 µg/mL (≈ 494 µM)
[15]
  MIC: > 128 µg/mL
[18]
  Ratio: 2

## O=C(/C=C/c1ccc2ccccc2n1)c1cccnc1
[1]
  MIC: 64 µg/mL
[2]
  MIC: 2 µg/mL (≈ 7.68 µM)
[3]
  MIC: 2 µg/mL (≈ 7.68 µM)
[4]
  MIC: 1020 µg/mL
[5]
  fractional inhibitory concentration index (FICI): 0.313
[6]
  fractional inhibitory concentration index (FICI): 0.07
[7]
  MIC: > 32 µg/mL
[8]
  MIC: > 32 µg/mL
[9]
  MIC: 2 µg/mL (≈ 7.68 µM)
[10]
  MIC: 4 µg/mL (≈ 15.4 µM)
[11]
  MIC: 64 µg/mL
[12]
  MIC: 2 µg/mL (≈ 7.68 µM)
[13]
  MIC: > 32 µg/mL
[14]
  MIC: 8 µg/mL (≈ 30.7 µM)
[15]
  MIC: > 32 µg/mL
[16]
  MIC: 1020 µg/mL
[17]
  IC50: 21.1 µM
[18]
  Ratio: 2

## O=C(/C=C/c1ccccn1)c1ccc2ccccc2c1
[1]
  MIC: 128 µg/mL
[2]
  MIC: 1 µg/mL (≈ 3.86 µM)
[3]
  MIC: 8 µg/mL (≈ 30.9 µM)
[4]
  MIC: 1020 µg/mL
[5]
  fractional inhibitory concentration index (FICI): 0.375
[6]
  fractional inhibitory concentration index (FICI): 0.023
[7]
  MIC: > 128 µg/mL
[8]
  MIC: > 128 µg/mL
[9]
  MIC: 1 µg/mL (≈ 3.86 µM)
[10]
  MIC: 2 µg/mL (≈ 7.71 µM)
[11]
  MIC: 16 µg/mL
[12]
  MIC: 1 µg/mL (≈ 3.86 µM)
[13]
  MIC: > 128 µg/mL
[14]
  MIC: 8 µg/mL (≈ 30.9 µM)
[15]
  MIC: > 128 µg/mL
[16]
  MIC: 1020 µg/mL

## O=C(/C=C/c1ccc2c(C(F)(F)F)cccc2n1)c1cccnc1
[2]
  MIC: 2 µg/mL (≈ 6.09 µM)
[3]
  MIC: 32 µg/mL (≈ 97.5 µM)
[7]
  MIC: 128 µg/mL (≈ 390 µM)
[8]
  MIC: > 128 µg/mL
[9]
  MIC: 2 µg/mL (≈ 6.09 µM)
[10]
  MIC: 2 µg/mL (≈ 6.09 µM)
[12]
  MIC: 2 µg/mL (≈ 6.09 µM)
[13]
  MIC: > 128 µg/mL
[14]
  MIC: 32 µg/mL (≈ 97.5 µM)
[15]
  MIC: > 128 µg/mL
[17]
  IC50: > 50 µM
[18]
  Ratio: 2

## O=C(/C=C/c1ccc2ccc(C(F)(F)F)cc2n1)c1ccncc1 [PFK-158]
[1]
  MIC: 2 µg/mL
[2]
  MIC: 1 µg/mL (≈ 3.05 µM)
[3]
  MIC: 4 µg/mL (≈ 12.2 µM)
[4]
  MIC: 1020 µg/mL
[5]
  fractional inhibitory concentration index (FICI): 0.252
[6]
  fractional inhibitory concentration index (FICI): 0.008
[7]
  MIC: > 32 µg/mL
[8]
  MIC: > 32 µg/mL
[9]
  MIC: 2 µg/mL (≈ 6.09 µM)
[10]
  MIC: 2 µg/mL (≈ 6.09 µM)
[11]
  MIC: 0.5 µg/mL
[12]
  MIC: 2 µg/mL (≈ 6.09 µM)
[13]
  MIC: > 32 µg/mL
[14]
  MIC: 4 µg/mL (≈ 12.2 µM)
[15]
  MIC: > 32 µg/mL
[16]
  MIC: 1020 µg/mL
[17]
  IC50: 15 µM
[18]
  Ratio: 2
